These results are taken from US5877199A, “Heterocyclic compounds, their preparation and their therapeutic use” (priority 1994, dated 1999).

This assay concerns the target T1, m1 muscarinic receptors (Homo sapiens, UniProt P11229).
T1 construct: expressed in transfected cells; host or cells: CHO (Chinese Hamster Ovary) cells, membranes
T1 sequence (P11229 1-460): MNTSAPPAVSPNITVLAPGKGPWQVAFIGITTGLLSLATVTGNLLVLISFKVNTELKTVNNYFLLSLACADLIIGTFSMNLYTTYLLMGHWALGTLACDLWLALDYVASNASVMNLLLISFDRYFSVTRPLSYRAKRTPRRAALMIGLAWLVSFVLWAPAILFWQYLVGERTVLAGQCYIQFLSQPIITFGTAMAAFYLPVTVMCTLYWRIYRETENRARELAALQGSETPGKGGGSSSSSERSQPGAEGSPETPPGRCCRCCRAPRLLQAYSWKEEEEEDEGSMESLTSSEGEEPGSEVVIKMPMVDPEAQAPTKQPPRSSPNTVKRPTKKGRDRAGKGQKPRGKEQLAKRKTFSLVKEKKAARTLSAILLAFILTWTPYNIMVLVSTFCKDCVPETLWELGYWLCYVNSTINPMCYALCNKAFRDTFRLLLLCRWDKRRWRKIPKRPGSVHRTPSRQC
Description: Effect on ACh binding: ACh inhibition of 3H-NMS binding (indirect assay) on CHO cell membranes. Conditions: tested at 3 μg/ml; 0.15 nM 3H-NMS, 30 μM ACh, 0.2 mM GTP, pH 7.4, 30° C., two hours. The source says:
The compounds of the present invention may be assayed for allosteric activity at m1 muscarinic receptors as described below, although the assays we describe are not necessarily exhaustive, and other assays may be employed, as desired, to establish allosterism.
A suitable cell line is CHO (Chinese Hamster Ovary), which are readily engineered to express only one receptor sub-type.
To obtain the large amount of cell membranes required, plates of 530 cm^2 culture area were used. CHO cells which express m1, m2, m3 and m4 receptors were grown separately in MEM alpha medium containing 10% newborn calf serum and antibiotics. When cells reached confluence, they were washed twice with 10 ml of 20 mM HEPES containing 10 mM EDTA (pH 7.4), scraped into the same buffer and homogenized using a Polytron (trademark) homogenizer (setting 5-6 for 5 sec×2). Membrane pellets were obtained by centrifugation (40000×g, 10 min, 4° C.) and resuspended in 20 mM HEPES-0.1 mM EDTA (pH 7.4). Centrifugation and resuspension were repeated twice to wash the cell membranes. After measurement of membrane protein, the membranes (1 or 2 mg protein/ml) were stored at -70° C.
While the direct assay measures ACh (=acetylcholine) binding only to the high affinity state, the indirect assay measures effects only at the low affinity state. This is achieved by including 0.2 mM GTP in the assay. In this assay a fixed concentration of ^3 H-NMS (roughly the Kd value) is incubated in the absence and presence of a fixed concentration of ACh (at about the IC50 value) and the effects of three concentrations of test agent are measured, again in the absence and presence of ACh.
Calculating the effects on ^3 H-NMS binding alone is as follows: binding in the presence of the agent is expressed as a percentage of binding in its absence and, if the effect is inhibitory, an IC50 is estimated graphically. The assay also contains a single high concentration of ^3 H-NMS (4 nM, about 30 times the Kd) which provides an estimate of Bmax (i.e. maximum binding).
Expressing the effect on cold ACh binding will be explained with reference to FIGS. 1a, b and c. These figures show theoretical data and the effects of the transformations described below. In FIGS. 1a and 1b ^3 H-NMS and cold ACh are present at their Kd concentrations; in FIG. 1a the agent has a negative allosteric effect on ^3 H-NMS, while in FIG. 1b it has a positive allosteric effect on ^3 H-NMS. The left panels show the amount of ^3 H-NMS specifically bound in the assay. If the affinity of ACh is reduced by the test agent, as shown in the top panels of FIGS. 1a and 1b, the inhibition by ACh will decrease, but the counts recovered will also depend on the effect of the agent on ^3 H-NMS binding alone. To calculate the effect on ACh binding the inhibitory effect of ACh is first calculated as a percent of its own control in the absence of ACh. Next it is assumed that fractional inhibition is the same as tractional occupancy, and inhibition in the presence of agent is expressed as a percentage of inhibition in the absence of agent. The effects of these transformations are shown in the centre panels. Expressing inhibition by ACh in the presence of agent as a percentage of inhibition in the absence of agent allows the effect of the agent on cold ACh binding to be seen on the same scale as the effect on ^3 H-NMS and ^3 H-ACh binding and is generally preferred.
If the concentration of ^3 H-NMS used in the indirect assay is around the Kd value or less, the transformation described above provides a qualitative and semi-quantitative measure of the agent's effect. If a higher concentration of ^3 H-NMS is used, or if the agent has a positive allosteric effect on ^3 H-NMS, then the results of this transformation may be misleading. […] It is assumed that ACh binds to a single affinity state i.e. that its inhibition curve has a slope of 1, and so an IC50 is calculated from the percentage inhibition of control binding. […]
For `CSc1c(CC(=O)O)ccc2c3ccccc3n(Cc3ccccc3)c12` [Example 5, (9-Benzyl-1-methylthiocarbazol-2-yl)acetic acid], the “Effect on ACh Binding” value was determined as 2.62. The figure for `CSc1c(CC(=O)O)ccc2c3ccccc3n(Cc3ccc(Cl)cc3)c12` [Example 7, [9-(4-Chlorobenzyl)-1-methylthiocarbazol-2-yl]acetic acid] is 3.55. The figure for `CSc1c(CC(=O)OC(C)(C)C)ccc2c3ccccc3n(Cc3ccc(F)cc3)c12` [Example 8, tert-Butyl [9-(4-fluorobenzyl)-1-methylthiocarbazol-2-yl]acetate] is 3.46; for `CSc1c(CC(=O)O)cc(C)c2c3ccccc3n(Cc3ccccc3)c12` [Example 14, (9-Benzyl-4-methyl-1-methylthiocarbazol-2-yl)acetic acid] it is 3.89. The figure for `CSc1c(C(Cc2ccccc2)C(=O)O)cc(C)c2c1[nH]c1ccccc12` (centres unmarked) [Example 15, 2-(4-Methyl-1-methylthiocarbazol-2-yl)-3-phenylpropionic acid] is 2.42. Turning to `CSc1c(C(Cc2ccccc2)C(=O)O)ccc2c3ccccc3n(Cc3ccccc3)c12` (centres unmarked) [Example 17, 2-(9-Benzyl-1-methylthiocarbazol-2-yl)-3-phenylpropionic acid], the “Effect on ACh Binding” value is listed as 2.50. For `CSc1c(C(Cc2ccc([N+](=O)[O-])cc2)C(=O)O)ccc2c3ccccc3n(Cc3ccc([N+](=O)[O-])cc3)c12` (centres unmarked) [Example 23, 2-[9-(4-Nitrobenzyl)-1-methylthiocarbazol-2-yl]-3-(4-nitrophenyl)propionic acid], the “Effect on ACh Binding” value amounted to 2.72.

`Cc1c(CCC(=O)O)ccc2c3ccccc3n(Cc3ccccc3)c12` [Example 37, 3-(9-Benzyl-1-methylcarbazol-2-yl)propionic acid]: the “Effect on ACh Binding” value was 2.09. Regarding `CSc1c(OCC(=O)O)ccc2c3ccccc3n(Cc3ccccc3)c12` [Example 46, (9-Benzyl-1-methylthiocarbazol-2-yloxy)acetic acid], the “Effect on ACh Binding” value came to 2.21. On to `O=C(O)CC1CCc2[nH]c3ccccc3c2C1` (centres unmarked) [Example 61, (1,2,3,4-Tetrahydrocarbazol-3-yl)acetic acid], for which the “Effect on ACh Binding” value is 2.11. As for `CSc1c(Cc2nnn[nH]2)ccc2c3ccccc3n(Cc3ccccc3)c12` [Example 77, 5-[(9-Benzyl-1-methylthiocarbazol)-2-ylmethyl]-1H-tetrazole], the “Effect on ACh Binding” value is 3.69.

On to `O=C(O)CC1CCc2c(n(Cc3ccccc3)c3ccccc23)S1` (centres unmarked) [Example 83, 2-(9-Benzyl-2,3,4,9-tetrahydrothiopyrano[2,3-b]indol-2-yl) acetic acid], for which the “Effect on ACh Binding” value is 2.08. With `c1ccc(Cn2c3c(c4ccccc42)CCC(Cc2nnn[nH]2)S3)cc1` (centres unmarked) [Example 84, 5-(9-Benzyl-2,3,4,9-tetrahydrothiopyrano[2,3-b]indol-2-yl)methyltetrazole] the figure was 3.30; with `O=C(O)Cc1cccc2c1ccn2Cc1ccccc1` [Example 91, (1-Benzylindol-4-yl)acetic acid], 2.76. The figure for `CSc1c(Cc2nnn[nH]2)cc(C)c2c3ccccc3n(Cc3ccccc3)c12` [Example 97, 5-[(9-Benzyl-4-methyl-1-methylthiocarbazol)-2-yl-methyl]-1H-tetrazole] is 4.97; for `CCCc1cc(CC(=O)O)c(SC)c2c1c1ccccc1n2Cc1ccccc1` [Example 116, (9-Benzyl-1-methylthio-4-propylcarbazol-2-yl)acetic Acid] it is 3.99; for `CCCOc1c(CC(=O)O)cc(C)c2c3ccccc3n(Cc3ccccc3)c12` [Example 132, (9-Benzyl-4-methyl-1-propoxycarbazol-2-yl)acetic Acid] it is 2.68. The figure for `Cc1cc(CC(=O)O)c(OCc2ccccc2)c2c1c1ccccc1n2Cc1ccccc1` [Example 134, (9-Benzyl-1-benzyloxy-4-methylcarbazol-2-yl)acetic Acid] is 3.40; for `CSc1c(CC(=O)O)cc(C)c2c3ccccc3n(Cc3cccc(OCc4ccccc4)c3)c12` [Example 136, [9-(3-Benzyloxybenzyl)-4-methyl-1-methylthiocarbazol-2-yl]acetic Acid] it is 2.36; for `CSc1c(CC(=O)O)cc(C)c2c3ccccc3n(Cc3cccc(F)c3)c12` [Example 141, [9-(3-Fluorobenzyl)-4-methyl-1-methylthiocarbazol-2-yl]acetic Acid] it is 3.81.

Turning to `CSc1c(CC(=O)O)cc(C)c2c3ccccc3n(Cc3ccc(F)cc3)c12` [Example 143, [9-(4-Fluorobenzyl)-4-methyl-1-methylthiocarbazol-2-yl]acetic Acid], the “Effect on ACh Binding” value came out at 5.36. With `CSc1c(CC(=O)O)cc(C)c2c3ccccc3n(Cc3cccc(Cl)c3)c12` [Example 145, [9-(3-Chlorobenzyl)-4-methyl-1-methylthiocarbazol-2-yl]acetic Acid] the figure was 5.27; with `CSc1c(CC(=O)O)cc(C)c2c3ccccc3n(Cc3ccc(Cl)c(Cl)c3)c12` [Example 149, [9-(3,4-Dichlorobenzyl)-4-methyl-1-methylthiocarbazol-2-yl]acetic Acid], 6.49. The figure for `CSc1c(Cc2nnn[nH]2)cc(C)c2c3ccccc3n(Cc3ccc(Cl)c(Cl)c3)c12` [Example 152, 5-[9-(3,4-Dichlorobenzyl)-4-methyl-1-methylthiocarbazol-2-yl]methyl-1H-tetrazole] is 2.02; for `O=C(O)Cc1ccc2c3ccccc3n(Cc3cccc(OCc4ccccc4)c3)c2c1` [Example 165, [9-(3-Benzyloxybenzyl)carbazol-2-yl]acetic Acid] it is 2.24.

For `CCCc1cc(C(Cc2cccc([N+](=O)[O-])c2)C(=O)O)c(SC)c2c1c1ccccc1n2Cc1cccc([N+](=O)[O-])c1` (centres unmarked) [Example 172, 2-[1-Methylthio-9-(3-nitrobenzyl)-4-propylcarbazol-2-yl]-3-(3-nitrophenyl)propionic Acid], the “Effect on ACh Binding” value stood at 2.59. With `CCCc1cc(CC(=O)O)c(SC)c2c1c1ccccc1n2Cc1ccc([N+](=O)[O-])cc1` [Example 176, [1-Methylthio-9-(4-nitrobenzyl)-4-propylcarbazol-2-yl]acetic Acid] the figure was 2.08; with `CSc1c(CC(=O)O)cc(C)c2c3ccccc3n(Cc3ccc(Cl)cc3)c12` [Example 180, [9-(4-Chlorobenzyl)-4-methyl-1-methylthiocarbazol-2-yl]acetic Acid], 5.02. The figure for `COc1ccc2c(c1)c1c(C)cc(CC(=O)O)c(SC)c1n2Cc1ccccc1` [Example 182, (9-Benzyl-6-methoxy-4-methyl-1-methylthiocarbazol-2-yl)acetic Acid] is 2.57.
